Laboratory results reported in patent US20210169856A1, “FORMULATIONS COMPRISING DOPAMINE-B-HYDROXYLASE INHIBITORS AND METHODS FOR THEIR PREPARATION” (BIAL - PORTELA & CA, S.A., priority 2018, published 2021).

Assay: Solubility of Compound X, Ph. Eur. 6 / USP 33 descriptive terms
Assay type: physicochemical
Source text: In this specification, we are adopting the definitions of solubility from the classification in the European Pharmacopeia 6th Edition and the United States Pharmacopeia 33 (Reference Tables: Description and Solubility):
Further increase in pH results in solubility decrease. […] The pH-dependent solubility profile of Compound X presents certain challenges to the development of pharmaceutical formulations, namely for its dissolution.

- Solubility (N,N-methylpyrrolidone): sparingly soluble
- Solubility (acetone): slightly soluble
- Solubility (acetonitrile): very slightly soluble
- Solubility (acidified acetonitrile): sparingly soluble
- Solubility (acidified methanol): sparingly soluble
- Solubility (acidified water (pH 1.2-2.0)): sparingly soluble
- Medium of maximum solubility (aqueous medium): HCl 0.01 (pH 2.0)
- pH dependence of solubility in aqueous medium (aqueous medium): decreases as the pH increases
- Solubility (chloroform): very slightly soluble
- Solubility (cyclohexane): insoluble
- Solubility (dichloromethane): slightly soluble
- Solubility (dimethyl sulfoxide): sparingly soluble
- Solubility (dimethylformamide): sparingly soluble
- Solubility (ethanol): practically insoluble
- Solubility (ethyl acetate): very slightly soluble
- Solubility (iso-octane): insoluble
- Solubility (isopropanol): insoluble
- Solubility (isopropyl acetate): very slightly soluble
- Solubility (methanol): very slightly soluble
- Solubility (methyl ethyl ketone): slightly soluble
- Solubility (tetrahydrofuran): sparingly soluble
- Solubility (toluene): very slightly soluble
- Solubility (water): insoluble
SMILES: Fc1cc(F)c2c(c1)C[C@@H](n1c(CCNCc3ccccc3)c[nH]c1=S)CO2 [Compound X]
